Experimental findings from patent US20110009394A1, “TRICYCLIC NITROGEN COMPOUNDS AND THEIR USE AS ANTIBACTERIAL AGENTS” (Glaxo Group Limited, priority 2008, published 2011) are described below.

Where a name gives a salt, the structure may show the parent alone.

The first assay concerns Mycobacterium tuberculosis H37Rv. Description: Mycobacterium tuberculosis H37Rv Inhibition Assay. It counts as cell-based. Conditions: ATCC 25618 / H37Rv, H37Rv strain (ATCC25618), Middlebrook 7H9+ADC, resazurin fluorescence, read-out: MIC value.
Turning to `Cl.O=c1cnc2ccc(=O)n3c2n1CC[C@H]3CN1CCC(NCc2ccc3c(c2)OCCO3)CC1` [Example 17B, (6S)-6-({4-[(2,3-Dihydro-1,4-benzodioxin-6-ylmethyl)amino]-1-piperidinyl}methyl)-5,6-dihydro-3H,4H,7H-1,3a,6a-triazaphenalene-3,7-dione hydrochloride], the MIC was less than 4 µg/mL.

The assay is the same for the next values; noted with them: ATCC 25618 / H37Rv, read-out: MIC value.
Consider `O=c1cnc2ccc(=O)n3c2n1CCC3CN1CCC(NCc2cc3c(cn2)OCCO3)CC1` (stereo not drawn) [Example 1, 6-([4-[(2,3-Dihydro[1,4]dioxino[2,3-c]pyridin-7-ylmethyl)amino]-1-piperidinyl]methyl)-5,6-dihydro-3H,4H,7H-1,3a,6a-triazaphenalene-3,7-dione dihydrochloride], for which the MIC is greater than 4 µg/mL.

On to `O=c1cnc2ccc(=O)n3c2n1CCC3CN1CCC(NCc2cc3c(cn2)OCS3)CC1` (stereo not drawn) [Example 2, 6-({4-[([1,3]Oxathiolo[5,4-c]pyridin-6-ylmethyl)amino]-1-piperidinyl}methyl)-5,6-dihydro-3H,4H,7H-1,3a,6a-triazaphenalene-3,7-dione dihydrochloride], for which the MIC was greater than 4 µg/mL.

Take `O=C1CSc2ccc(CNC3CCN(CC4CCn5c(=O)cnc6ccc(=O)n4c65)CC3)nc2N1` (stereo not drawn) [Example 4, 6-[(4-{[(3-oxo-3,4-dihydro-2H-pyrido[3,2-b][1,4]thiazin-6-yl)methyl]amino}-1-piperidinyl)methyl]-5,6-dihydro-3H,4H,7H-1,3a,6a-triazaphenalene-3,7-dione dihydrochloride]: the MIC is less than 400 µg/mL.

On to `O=c1ccc2ncc(=O)n3c2n1CCC3CN1CCC(NCc2cc3c(cn2)OCS3)CC1` (stereo not drawn) [Example 8, 4-({4-[([1,3]Oxathiolo[5,4-c]pyridin-6-ylmethyl)amino]-1-piperidinyl}methyl)-5,6-dihydro-3H,4H,7H-1,3a,6a-triazaphenalene-3,7-dione dihydrochloride], for which the MIC was greater than 4 µg/mL.

Regarding `O=c1ccc2ncc(=O)n3c2n1CC[C@H]3CN1CCC(NCc2cc3c(cn2)OCCS3)CC1` [Example 9, (4S)-4-({4-[(2,3-Dihydro[1,4]oxathiino[2,3-c]pyridin-7-ylmethyl)amino]-1-piperidinyl}methyl)-5,6-dihydro-3H,4H,7H-1,3a,6a-triazaphenalene-3,7-dione dihydrochloride], the MIC is greater than 4 µg/mL.

Take `O=c1ccc2ccc(=O)n3c2n1CCC3CN1CCC(NCc2cc3c(cn2)OCS3)CC1` (stereo not drawn) [Example 11, 5-({4-[([1,3]Oxathiolo[5,4-c]pyridin-6-ylmethyl)amino]-1-piperidinyl}methyl)-6,7-dihydro-3H,5H,9H-pyrimido[1,2,3-ij]-1,8-naphthyridine-3,9-dione dihydrochloride]: the MIC was less than 4 µg/mL.

With `N#Cc1cc(CNC2CCN(C[C@@H]3CCn4c(=O)cnc5ccc(=O)n3c54)CC2)cc2c1OCCO2` [Example 15, 7-{[(1-{[(6S)-3,7-Dioxo-5,6-dihydro-3H,4H,7H-1,3a,6a-triazaphenalen-6-yl]methyl}-4-piperidinyl)amino]methyl}-2,3-dihydro-1,4-benzodioxin-5-carbonitrile dihydrochloride], the MIC is less than 4 µg/mL.

For `O=c1cnc2ccc(=O)n3c2n1CC[C@H]3CN1CCC(NCc2cc3c(cc2F)OCCO3)CC1` [Example 16, (6S)-6-[(4-{[(7-Fluoro-2,3-dihydro-1,4-benzodioxin-6-yl)methyl]amino}-1-piperidinyl)methyl]-5,6-dihydro-3H,4H,7H-1,3a,6a-triazaphenalene-3,7-dione dihydrochloride], the MIC was greater than 4 µg/mL.
